According to patent publication US20230348453A1, “HALOGENATED-HETEROARYL AND OTHER HETEROCYCLIC KINASE INHIBITORS, AND USES THEREOF” (iOmx Therapeutics AG, priority 2020, published 2023):
Where “and” joins values, the source holds several entries; their conditions need not be identical. Equal values may be shown once.

What was measured:
[1] = molecular target: MDR1 pump (P-gp), MDCK-MDR1 cells (Homo sapiens (Human), UniProt P08183); experiment: MDR1-MDCK effective efflux assay; conditions: Table 5.1B
[2] = molecular target: MDR1 (P-gp) (Homo sapiens (Human), UniProt P08183); experiment: MDR1-MDCK effective efflux assay; conditions: dog; for efflux ratio: Table 5.1B
[3] = molecular target: T1, SIK3 (Homo sapiens (Human), UniProt Q9Y2K2); experiment: SIK3 kinase inhibition (IC50); conditions: read-out: Kinase: IC50 (nM) SIK3
[4] = molecular target: T1, SIK3; conditions: fold of the value of compound C7 (C7 = 1×)
[5] = Murine plasma protein binding
[6] = tested on: EMT6 breast cancer tumours; experiment: EMT6 immune-excluded (cold) tumour syngeneic mouse model; format: in vivo, BALB/c mice; parameters: key to Tukey's multiple comparisons test, Significance summary: ns = not significant; conditions: for Tukey's multiple comparisons test, Significance summary: EMT6 model; for tumour growth inhibition (TGI): EMT6
[7] = molecular target: HCK (Homo sapiens (Human), UniProt P08631); format: biochemical; conditions: Kinase Profiler
[8] = female, C57BL/6, mouse, in vivo, 7 days
[9] = tested on: MC38 colorectal carcinoma tumours; experiment: MC38 syngeneic mouse tumour model (Example 8.1); conditions: MC38; for Body weight increase (%) / Non-treatment related death / Tumour growth inhibition (%): BID po
[10] = tested on: MC38 tumour; experiment: MC38 syngeneic tumour model, tumour growth and survival; format: in vivo, mice; conditions: E9 24 mg/kg BID compared to dasatinib 30 mg/kg QD
Experimental: Error bars SEM. X-axes: Days. Statistical significance was calculated with two-way ANOVA analysis including Tukey's multiple comparison analysis. ***p<0.001; (B) Body weight kinetics of the mice in (A). Y-axis: Mean body weight change (%).
Y-axis=Mean tumour volume (mm3). […] X-axis=Days. […] X-axis: Days.
Left hand column=compound treatment group; and right hand column=vehicle treatment group. Y axes=Tumour volume (mm3); X axes=Days after inoculation.
FIG. 29: depicts the effect of compound E9 and anti PD-1 mAB (alone or in combination) on in vivo tumour growth (mean+/−SEM) in a MC38 syngeneic tumour model. (A) Y axes=Tumour volume (mm3); X axes=Days after start of therapy. Vehicle+anti PD-1 mAB (squares), vehicle+mIgG1e ctr (circles), E9+anti PD-1 mAB (inverted triangles), and E9+mIgG1e ctr (triangles). (B) Median overall survival.) Y axes=Probability of survival (%); X axes=Days after start of therapy. Vehicle+anti PD-1 mAB (grey/dashed), vehicle+mIgG1e ctr (black/solid), E9+anti PD-1 mAB (grey/solid), and E9+mIgG1e ctr (black/dashed). […] (C) E9 25 mg/kg BID; (D) aPD-1 2.5 mg/kg; (E) E9 50 mg/kg BID+aPD-1 2.5 mg/kg; and (F) vehicle.

[11] = tested on: SIK3 WT and KO MC38 clones; experiment: TNF-mediated killing of SIK3 wildtype vs SIK3 knockout MC38 clones (CTG); format: cell-based, mouse; conditions: sub-optimal TNF (<10 ng/ml), 72 h
Experimental: The assay was performed as follows: MC38 SIK3 KO clones were generated using CRISPR. Cells were transfected with RNP complexes (Cas9+gRNA) containing gRNAS targeting SIK3 or non-targeting sequences (control). […] Subsequently, single cell clones were generated by limiting dilution. CRISPR-derived mutations in single clones were detected by next-generation sequencing and analysed using CRISPResso. Knockout and wildtype clones were selected and plated overnight. […] Cells treated with different concentrations of inhibitor but without TNF served as no TNF control. Cell viability was measured by CTG assay.

[12] = tested on: PANC1 cells; experiment: TNF-sensitised cell viability assay (CellTiter-Glo); conditions: Homo sapiens, PANC-1, read-out: PANC IC50 (at 100 ng/ml rHuNF)
[13] = tested on: NFKB activity in reporter MC38 cells; experiment: NFKB luciferase reporter activity in MC38 cells; format: cell-based, murine; conditions: Mus musculus, MC-38, +10 ng/ml rHuTNF for 8 h
Experimental: FIG. 28: depicts: (A) and (B) effect of compound E9 on NFKB activity. […] Luciferase activity was normalised to cells treated with rHuTNF without inhibitor (DMSO only). Y-axis=NFKB activity (%). X-axis=compound concentration (nM); Bar “A” viability without compound and without TNF; bar “B” viability without compound and with 10 ng/ml TNF; and (C) Effect of compound E9 on HDAC4 phosphorylation. […] Whole cell lysates were analysed in a Meso Scale Discovery (MSD) assay with anti-HDAC4 capture and anti-pHDAC4 detection antibodies. HDAC4 phosphorylation was normalized to untreated PANC-1 cells (DMSO only). Y-axis=HDAC4 phosphorylation (%). X-axis=Compound concentration (nM).

[14] = Metabolite profile in hepatocytes / in vivo
Description: Metabolites are identified using high-resolution mass spectrometry.

[15] = molecular target: SIK2 (Homo sapiens (Human), UniProt Q9H0K1); experiment: SIK2 kinase inhibition (IC50); conditions: read-out: Kinase: IC50 (nM) SIK2
[16] = MDCK wild type permeability/efflux; conditions: dog
[17] = Mouse hepatocyte stability; format: in vitro ADME; conditions: hepatocytes
[18] = in vitro; conditions: mouse, microsomes
[19] = tested on: MC38 murine tumour cell line; experiment: TNF-sensitised cell viability assay (CellTiter-Glo); conditions: Mus musculus
[20] = in vitro; conditions: human, microsomes

Cc1nc(Nc2ncc(C(=O)Nc3c(CF)csc3Cl)s2)cc(N2CCN(C)CC2)n1 [Compound E9, N-(2-chloro-4-(fluoromethyl)thiophen-3-yl)-2-((2-methyl-6-(4-methylpiperazin-1-yl)pyrimidin-4-yl)amino)thiazole-5-carboxamide]
MDCK-MDR1 cells, Mean Efflux Ratio (MDR1) [1]: 26 | Papp ([2]; MDCK-MDR1): 5 ×10⁻⁶ cm/s | efflux ratio ([2]; MDCK-MDR1, MDCK-MDR1 cells, Mean Efflux Ratio (MDR1)): 20 to 30 | efflux ratio ([2]; MDCK-MDR1, P-gP driven efflux ratio (MDR1/wt)): 27 | IC50 [3]: < 20 nM | SIK3 IC50 (nM), relative to C7 [4]: 0.3× | Murine plasma protein binding, Percentage unbound (%) ([5]; Table 5.1A): 1% | recovery at 4 h ([5]; mouse, plasma): 88% | Tukey's multiple comparisons test, Significance summary ([6]; E9 25 mg/kg bid vs. E9 […] bid): ns | Tukey's multiple comparisons test, Significance summary ([6]; E9 25 mg/kg qd vs. E9 5 mg/kg bid): ns | tumour growth inhibition (TGI) ([6]; 5 mg/kg BID): 24% and 25% | tumour growth inhibition (TGI) ([6]; 25 mg/kg BID): 37% | tumour growth inhibition (TGI) ([6]; 25 mg/kg QD): 9% | Tukey's multiple comparisons test, Significance summary ([6]; Vehicle vs. E9 25 mg/kg qd): ns | HCK residual activity [7]: less than 1% | DLT@BID dosing [8]: n.d. @50 mg/kg | DLT@QD dosing [8]: n.d. @50 mg/kg | HRD in vivo @BID [8]: 50 mg/kg | HRD in vivo @QD [8]: 50 mg/kg | Body weight increase (%) ([9]; 25 mg/Kg): 16.8% | Non-treatment related death ([9]; 25 mg/Kg): 2/16 | Tumour growth inhibition (%) ([9]; 25 mg/Kg): 74% | average TGI ([9]; 25 mg/kg BID): 72% | Body weight increase (%) ([9]; 50 mg/Kg): 18.7% | Non-treatment related death ([9]; 50 mg/Kg): 3/16 | Tumour growth inhibition (%) ([9]; 50 mg/Kg): 69% | tumour growth inhibition [10]: superior and more uniform tumour growth inhibition | TNF-mediated killing in SIK3 WT vs KO MC38 clones [11]: induced TNF-mediated killing only in SIK3 WT clones | IC50 [12]: < 100 nM | EC50 [13]: 389 nM | quinone-imine reactive metabolite [14]: not observed | IC50 [15]: < 10 nM | Papp [16]: 10 ×10⁻⁶ cm/s | efflux ratio [16]: 1 | half-life [17]: 65 min | microsomal CLint ([17]; read-out: Mouse hepatocyte stability, Intrinsic clearance): 21 µL/min/mg | half-life [18]: 9 min | microsomal CLint [18]: 158 µL/min/mg | IC50 ([19]; MC-38, read-out: MC38 IC50 (at 100 ng/mL rMuTNF)): < 100 nM | EC50 ([19]; MC-38, read-out: mean EC50 of sensitising MC38 tumour cells to TNF-mediated killing): < 100 nM | half-life [20]: 11 min | microsomal CLint [20]: 131 µL/min/mg
